Data reported in PMC6781309, “Assessing Drug Interaction and Pharmacokinetics of Loxoprofen in Mice Treated with CYP3A Modulators” (Pharmaceutics, 2019).
Several values for one entry are separate records, joined by “and”; a condition that tells them apart may be missing. Equal entries are not always repeated. Where two headings read alike, the source gives them in different places.

What was measured:
[1] = Relative concentration of LOX and its metabolites in hepatic portal vein plasma 10 min post-LOX (HRMS); format: in vivo, Male ICR mice; details: hepatic portal vein plasma 10 min after LOX 20 mg/kg oral, n = 3; for Relative concentration in plasma (DEX average % of area, VH corn oil = 100): DEX 40 mg/kg i.p. 3 days; for Relative concentration in plasma (KTC average % of area, VH 10% ethanol = 100): KTC 60 mg/kg i.p. single dose
Description: (§1) The acclimatized animals were divided into eight groups, with each group containing 3 mice: groups I and II, vehicle (corn oil); groups III and IV, DEX-treated; groups V and VI, vehicle (10% Ethanol); and groups VII and VIII, KTC-treated group. […] Then, animals were fasted for 12 hours with free access to water before starting the experiment. After fasting, LOX (20 mg/kg) was administered orally to groups I, II, III, and IV.
Similarly, blood from groups II, IV, VI, and VIII was collected from the hepatic portal vein 10 min post-LOX administration to identify metabolites of LOX and to analyze drug–drug interactions. Plasma from these samples was prepared as explained above. Then, 300 µL of ACN having 0.1% formic acid and 5 µM of the IS were mixed with 100 µL of each plasma sample. […] Supernatants were transferred into tubes and dried using a Labconco Speed Vac (Labconco Corporation, Kansas City, MO, USA). […] Each supernatant was transferred into an LCMS vial, and 5 µL were injected into a high-resolution mass spectrometer (HRMS).
HRMS coupled with ultrahigh performance liquid chromatography (UHPLC) was used to detect hydroxy-LOX and other metabolites of LOX. The UHPLC system, Dionex Ultimate 3000 (Dionex Softron GmbH, Germering, Germany) consisted of an HPG-3200SD Standard binary pump, a WPS 3000 TRS analytical autosampler, and a TCC-3000 SD column compartment. In this experiment, the HRMS was a Q Exactive Focus quadrupole-Orbitrap MS (Thermo Fisher Scientific, Bremen, Germany) equipped with a heated electrospray ionization (HESI-II) ion probe.
LOX was detected as a deprotonated ion [M-H]^− at m/z 245.1175 in negative ion mode. Therefore, negative ion mode was used with the following optimized conditions for LOX: spray voltage of 2.5 kV, capillary temperature of 320 °C, auxiliary gas at 12 aux unit, aux gas heater temperature of 200 °C, sheath gas at 35 aux units, and S-lens RF level of 50. LOX and its metabolites were separated using a 150 mm × 2.1 mm, 2.6-μm reverse-phase liquid chromatography column, Kinetex® C18 column (Phenomenex, CA, USA) at 40 °C. Furthermore, MS-grade solvents were used as the mobile phase in gradient elution mode: 0.1% aqueous formic acid as Solvent A and 0.1% formic acid in ACN as Solvent B. The flow was set to 0.22 mL/min with a gradient condition of Solvent B as 10% between 0 and 0.5 min, 10–50% between 0.5 and 21.5 min, 50–95% between 21.5 and 22.5 min, 95% between 22.5 and 25.5 min, 95–10% between 25.5 and 25.6 min, and 10% between 25.6 and 30 min.

CYP3A = test system: CYP3A; design: method as in PMID 17965516; details: human liver microsomes; cited from earlier work
[2] = Plasma pharmacokinetics of LOX, cis-LOX and trans-LOX after oral LOX in mice pretreated with DEX, KTC or vehicle; format: in vivo, Male ICR mice; details: for AUC(0-inf) / AUC(0-t) / Cmax / half-life / Tmax: male, ICR, mouse, plasma, po, 20 mg/kg, mouse plasma, LOX 20 mg/kg oral, mean ± SE, n = 3; for Cmax: read-out: Cmax; for half-life: read-out: T1/2 (elimination half-life); for Tmax: read-out: Tmax (converted)
Description: as §1, with “After fasting, LOX (20 mg/kg) was administered orally to groups I, II, III, and IV.” left out
After the oral administration of LOX, blood from groups I, III, V, and VII was collected from the tail at 0, 5, 10, 15, 30, 60, 120, and 240 min post-administration and placed into sodium heparin-containing tubes. After the last blood collection, the mice were sacrificed by cervical dislocation. Plasma was then prepared by centrifuging the blood at 4000× g for 15 min at 4 °C and stored at −80 °C until analysis. For analysis, each sample was prepared by mixing plasma (10 µL) and 90 µL of ACN containing 0.1% formic acid and 5 µM of tolbutamide as an internal standard (IS). […] Finally, 10 µL of sample supernatant was injected into the LC-MS/MS system. The PK parameters (the maximum plasma concentration [Cmax], time to reach the maximum plasma concentration [Tmax], elimination half-life [T1/2], and area under the plasma concentrations [AUC]) were analyzed by WinNonlin software (Version 2.1, Scientific Consulting, Louisville, KY, USA).
A Shimadzu Prominence UFLC system (Kyoto, Japan) connected to a TSQ vantage triple quadrupole mass spectrometer with a HESI-II spray source incorporated with a DGU-20A5 degasser, an LC-20AD pump, a SIL-20A autosampler, and a CTO-20A column oven was used for the analyses. A shim-pack GIS C18 column (150 × 3.0 mm, […]) was used to separate analytes in the samples. Mobile phases A and B were composed of water with formic acid and ACN with 0.1% formic acid, respectively, and the flow rate was 0.50 mL/min at 40 °C. The gradient conditions were as follows: 20% of B between 0 and 0.25 min, 20–80% of B between 0.25 and 9.75 min, 80–20% of B between 9.75 and 10 min, and 20% of B between 10 and 13 min. The MS was operated under the following conditions: electrospray ionization in negative mode at 3.0 kV, capillary temperature at 350 °C, vaporizer temperature at 300 °C, sheath gas pressure at 35 Arb, and auxiliary gas pressure at 10 Arb. Finally, Xcalibur software (Thermo Fisher Scientific Inc., Waltham, MA, USA) was used for data analysis.

[3] = pretreated DEX 40 mg/kg i.p. 3 days
[4] = pretreated DEX 40 mg/kg i.p. 3 days, read-out: AUC(0–60) (converted)
[5] = pretreated KTC 60 mg/kg i.p. single dose
[6] = pretreated VH (10% ethanol) i.p. single dose
[7] = pretreated VH (10% ethanol) i.p. single dose, read-out: AUC(0–60) (converted)
[8] = pretreated VH (corn oil) i.p. 3 days
[9] = pretreated VH (corn oil) i.p. 3 days, read-out: AUC(0–60) (converted)

Compound | Relative concentration in plasma (KTC average % of area, VH 10% ethanol = 100) [1] | AUC(0-inf) [2, 3] [ng·h/mL] | AUC(0-t) [2, 4] [ng·h/mL] | Cmax [2, 3] [ng/mL] | half-life [2, 3] [min] | Tmax [2, 3] [min] | AUC(0-inf) [2, 5] [ng·h/mL] | AUC(0-t) [2, 5] [ng·h/mL] | Cmax [2, 5] [ng/mL] | half-life [2, 5] [min] | Tmax [2, 5] [min] | AUC(0-inf) [2, 6] [ng·h/mL] | AUC(0-t) [2, 7] [ng·h/mL] | Cmax [2, 6] [ng/mL] | half-life [2, 6] [min] | Tmax [2, 6] [min] | AUC(0-inf) [2, 8] [ng·h/mL] | AUC(0-t) [2, 9] [ng·h/mL] | Cmax [2, 8] [ng/mL] | half-life [2, 8] [min] | further results
CC(C(=O)O)c1ccc(CC2CCCC2=O)cc1 (centres unmarked) [LOX, 2-(4-((2-Oxocyclopentyl)methyl)phenyl)propanoic acid, reference compound] | 178.2% and 178.2 ± 8.3% | 937 | 892 | 2500 ± 200 | 12 ± 0.7 | 5 | 1150 | 1110 | 3500 ± 500 | 12.2 ± 0.9 | 5 | 985 | 912 | 2700 ± 300 | 14.6 ± 1.1 | 5 | 1700 | 1600 | 4800 ± 900 | 14.9 ± 0.6 | Relative concentration in plasma (DEX average % of area, VH corn oil = 100) [1]: 74.1% and 74.1 ± 6.3%; Effect on the metabolism of tacrolimus (CYP3A): slightly inhibited; Detection in plasma at later time points ([2]; blood collected for up to 240 min after LOX 20 mg/kg oral): not detected after 60 min; Tmax [2, 8]: 5 min
C[C@H](C(=O)O)c1ccc(C[C@H]2CCC[C@@H]2O)cc1 [trans-LOX, (2S)-2-[4-[[(1R,2S)-2-hydroxycyclopentyl]methyl]phenyl]propanoic acid] | 158.9 ± 11.9% | 1430 | 1130 | 2100 ± 200 | 26.4 ± 1.6 | 10.4 | 1580 | 1340 | 3100 ± 300 | 19.8 ± 0.7 | 11.7 | 1520 | 1170 | 2100 ± 200 | 26 ± 0.5 | 11.6 | 2580 | 2290 | 4400 ± 500 | 18.2 ± 0.6 | Relative concentration in plasma (DEX average % of area, VH corn oil = 100) ([1]; listed as M1): 80.07%; Relative concentration in plasma (KTC average % of area, VH 10% ethanol = 100) ([1]; listed as M1): 158.93%; Tmax [2, 8]: 9.1 min
